The values below are quoted from earlier work in US6419954B1, “Tablets and methods for modified release of hydrophilic and other active agents” (Yamanouchi Pharmaceutical Co., Ltd., priority 2000, dated 2002).

Counter-ions that a name gives are not always drawn. Like-named read-outs stand apart in the source and are kept apart here.

The conditions of the series: at 25° C.

Turning to `CC1OC2(CS1)CN1CCC2CC1` (racemic) [Cevimeline HCl, (+/−)-cis-2-methylspiro [1,3-oxathiolane-5,3′-quinuclidine]hydrochloride, hemihydrate], the water solubility entry is given as “about 766 mg/ml” (hemihydrate) and “about 1,400 mg/ml” (listed as SNI-2011, hemihydrate).
